# Laboratory results reported in publication PMC6131539, “Behavioral Effects of a Potential Novel TAAR1 Antagonist” (Frontiers in Pharmacology, 2018).
# Assays:
# Test in all cases: PDSP binding, primary screen
# [1] = target: T1, 5-HT7 (Homo sapiens, UniProt P34969)
# T1 construct: purchased NIMH Psychoactive Drug Screening Program (PDSP), University of North Carolina-Chapel Hill
# Experimental: (§1) This was achieved through the identification of potential pharmacological targets of compound 22 using the Psychoactive Drug Screening Program (PDSP) at University of North Carolina-Chapel-Hill. PDSP provides a platform for screening novel psychoactive compounds on human proteins expressed in the central nervous system in order to identify their biological target(s) ([Besnard et al., 2012]). Binding studies were done on 47 targets at a single dose of compound 22 (10 μM; Supplementary Table S1). This primary screen yielded a total of 5 hits for compound 22 (Table 2). These hits were the serotonin, dopamine, and norepinephrine transporters, as well as the sigma 1 and sigma 2 receptors.
# (§2) Supplemental Table 1. Compound 22 binding studies from PDSP: primary screen for compound 22 and subsequent hits (50% cut-off, hits highlighted in red). The primary screen was performed by PDSP as described previously (Besnard et al., 2012).
# [2] = target: T2, Alpha1B (Homo sapiens, UniProt P35368)
# T2 construct: purchased NIMH Psychoactive Drug Screening Program (PDSP), University of North Carolina-Chapel Hill
# Experimental: as §1, §2
# [3] = target: T3, SERT (Homo sapiens, UniProt P31645)
# T3 construct: purchased NIMH Psychoactive Drug Screening Program (PDSP), University of North Carolina-Chapel Hill
# Experimental: as §1, §2
# [4] = target: T4, KOR (Homo sapiens, UniProt P41145)
# T4 construct: purchased NIMH Psychoactive Drug Screening Program (PDSP), University of North Carolina-Chapel Hill
# Experimental: as §1, §2
# [5] = target: T5, 5-HT1A (Homo sapiens, UniProt P08908)
# T5 construct: purchased NIMH Psychoactive Drug Screening Program (PDSP), University of North Carolina-Chapel Hill
# Experimental: as §1, §2
# [6] = target: T6, Sigma 1 (Homo sapiens, UniProt Q99720)
# T6 construct: purchased NIMH Psychoactive Drug Screening Program (PDSP), University of North Carolina-Chapel Hill
# Experimental: as §1, §2
# [7] = target: T7, Alpha2C (Homo sapiens, UniProt P18825)
# T7 construct: purchased NIMH Psychoactive Drug Screening Program (PDSP), University of North Carolina-Chapel Hill
# Experimental: as §1, §2
# [8] = target: T8, Beta2 (Homo sapiens, UniProt P07550)
# T8 construct: purchased NIMH Psychoactive Drug Screening Program (PDSP), University of North Carolina-Chapel Hill
# Experimental: as §1, §2
# [9] = target: T9, 5-ht5a (Homo sapiens, UniProt P47898)
# T9 construct: purchased NIMH Psychoactive Drug Screening Program (PDSP), University of North Carolina-Chapel Hill
# Experimental: as §1, §2
# [10] = target: T10, D2 (Homo sapiens, UniProt P14416)
# T10 construct: purchased NIMH Psychoactive Drug Screening Program (PDSP), University of North Carolina-Chapel Hill
# Experimental: as §1, §2
# [11] = target: T11, D1 (Homo sapiens, UniProt P21728)
# T11 construct: purchased NIMH Psychoactive Drug Screening Program (PDSP), University of North Carolina-Chapel Hill
# Experimental: as §1, §2
# [12] = target: T12, H2 (Homo sapiens, UniProt P25021)
# T12 construct: purchased NIMH Psychoactive Drug Screening Program (PDSP), University of North Carolina-Chapel Hill
# Experimental: as §1, §2
# [13] = target: T13, 5-HT2B (Homo sapiens, UniProt P41595)
# T13 construct: purchased NIMH Psychoactive Drug Screening Program (PDSP), University of North Carolina-Chapel Hill
# Experimental: as §1, §2
# [14] = target: T14, H4 (Homo sapiens, UniProt Q9H3N8)
# T14 construct: purchased NIMH Psychoactive Drug Screening Program (PDSP), University of North Carolina-Chapel Hill
# Experimental: as §1, §2
# [15] = target: T15, 5-HT1D (Homo sapiens, UniProt P28221)
# T15 construct: purchased NIMH Psychoactive Drug Screening Program (PDSP), University of North Carolina-Chapel Hill
# Experimental: as §1, §2
# [16] = target: T16, 5-HT1B (Homo sapiens, UniProt P28222)
# T16 construct: purchased NIMH Psychoactive Drug Screening Program (PDSP), University of North Carolina-Chapel Hill
# Experimental: as §1, §2
# [17] = target: T17, MOR (Homo sapiens, UniProt P35372)
# T17 construct: purchased NIMH Psychoactive Drug Screening Program (PDSP), University of North Carolina-Chapel Hill
# Experimental: as §1, §2
# [18] = target: T18, H1 (Homo sapiens, UniProt P35367)
# T18 construct: purchased NIMH Psychoactive Drug Screening Program (PDSP), University of North Carolina-Chapel Hill
# Experimental: as §1, §2
# [19] = target: T19, NET (Homo sapiens, UniProt P23975)
# T19 construct: purchased NIMH Psychoactive Drug Screening Program (PDSP), University of North Carolina-Chapel Hill
# Experimental: as §1, §2
# [20] = target: T20, H3 (Homo sapiens, UniProt Q9Y5N1)
# T20 construct: purchased NIMH Psychoactive Drug Screening Program (PDSP), University of North Carolina-Chapel Hill
# Experimental: as §1, §2
# [21] = target: T21, 5-HT2C (Homo sapiens, UniProt P28335)
# T21 construct: purchased NIMH Psychoactive Drug Screening Program (PDSP), University of North Carolina-Chapel Hill
# Experimental: as §1, §2
# [22] = target: T22, D3 (Homo sapiens, UniProt P35462)
# T22 construct: purchased NIMH Psychoactive Drug Screening Program (PDSP), University of North Carolina-Chapel Hill
# Experimental: as §1, §2
# [23] = target: T23, Beta3 (Homo sapiens, UniProt P13945)
# T23 construct: purchased NIMH Psychoactive Drug Screening Program (PDSP), University of North Carolina-Chapel Hill
# Experimental: as §1, §2
# [24] = target: T24, D5 (Homo sapiens, UniProt P21918)
# T24 construct: purchased NIMH Psychoactive Drug Screening Program (PDSP), University of North Carolina-Chapel Hill
# Experimental: as §1, §2
# [25] = target: T25, D4 (Homo sapiens, UniProt P21917)
# T25 construct: purchased NIMH Psychoactive Drug Screening Program (PDSP), University of North Carolina-Chapel Hill
# Experimental: as §1, §2
# [26] = target: T26, M4 (Homo sapiens, UniProt P08173)
# T26 construct: purchased NIMH Psychoactive Drug Screening Program (PDSP), University of North Carolina-Chapel Hill
# Experimental: as §1, §2
# [27] = target: T27, Beta1 (Homo sapiens, UniProt P08588)
# T27 construct: purchased NIMH Psychoactive Drug Screening Program (PDSP), University of North Carolina-Chapel Hill
# Experimental: as §1, §2
# [28] = target: T28, 5-HT3 (Homo sapiens, UniProt P46098)
# T28 construct: purchased NIMH Psychoactive Drug Screening Program (PDSP), University of North Carolina-Chapel Hill
# Experimental: as §1, §2
# [29] = target: T29, Alpha1D (Homo sapiens, UniProt P25100)
# T29 construct: purchased NIMH Psychoactive Drug Screening Program (PDSP), University of North Carolina-Chapel Hill
# Experimental: as §1, §2
# [30] = target: T30, 5-HT1E (Homo sapiens, UniProt P28566)
# T30 construct: purchased NIMH Psychoactive Drug Screening Program (PDSP), University of North Carolina-Chapel Hill
# Experimental: as §1, §2
# [31] = target: T31, DOR (Homo sapiens, UniProt P41143)
# T31 construct: purchased NIMH Psychoactive Drug Screening Program (PDSP), University of North Carolina-Chapel Hill
# Experimental: as §1, §2
# [32] = target: T32, Alpha2A (Homo sapiens, UniProt P08913)
# T32 construct: purchased NIMH Psychoactive Drug Screening Program (PDSP), University of North Carolina-Chapel Hill
# Experimental: as §1, §2
# [33] = target: T33, 5-HT6 (Homo sapiens, UniProt P50406)
# T33 construct: purchased NIMH Psychoactive Drug Screening Program (PDSP), University of North Carolina-Chapel Hill
# Experimental: as §1, §2
# [34] = target: T34, Alpha1A (Homo sapiens, UniProt P35348)
# T34 construct: purchased NIMH Psychoactive Drug Screening Program (PDSP), University of North Carolina-Chapel Hill
# Experimental: as §1, §2
# [35] = target: T35, DAT (Homo sapiens, UniProt Q01959)
# T35 construct: purchased NIMH Psychoactive Drug Screening Program (PDSP), University of North Carolina-Chapel Hill
# Experimental: as §1, §2
# [36] = target: T36, M5 (Homo sapiens, UniProt P08912)
# T36 construct: purchased NIMH Psychoactive Drug Screening Program (PDSP), University of North Carolina-Chapel Hill
# Experimental: as §1, §2
# [37] = system: Sigma 2; parameters: species or system human; details: 10 μM
# Experimental: as §1, §2
# [38] = system: NMDA; parameters: species or system human; details: 10 μM
# Experimental: as §1, §2
# [39] = system: AMPA; parameters: species or system human; details: 10 μM
# Experimental: as §1, §2
# [40] = system: BZP site; parameters: species or system human; details: 10 μM
# Experimental: as §1, §2
# [41] = system: GABAA; parameters: species or system human; details: 10 μM
# Experimental: as §1, §2
# [42] = system: PBR; parameters: species or system human; details: 10 μM
# Experimental: as §1, §2
# T18 sequence (P35367 whole entry): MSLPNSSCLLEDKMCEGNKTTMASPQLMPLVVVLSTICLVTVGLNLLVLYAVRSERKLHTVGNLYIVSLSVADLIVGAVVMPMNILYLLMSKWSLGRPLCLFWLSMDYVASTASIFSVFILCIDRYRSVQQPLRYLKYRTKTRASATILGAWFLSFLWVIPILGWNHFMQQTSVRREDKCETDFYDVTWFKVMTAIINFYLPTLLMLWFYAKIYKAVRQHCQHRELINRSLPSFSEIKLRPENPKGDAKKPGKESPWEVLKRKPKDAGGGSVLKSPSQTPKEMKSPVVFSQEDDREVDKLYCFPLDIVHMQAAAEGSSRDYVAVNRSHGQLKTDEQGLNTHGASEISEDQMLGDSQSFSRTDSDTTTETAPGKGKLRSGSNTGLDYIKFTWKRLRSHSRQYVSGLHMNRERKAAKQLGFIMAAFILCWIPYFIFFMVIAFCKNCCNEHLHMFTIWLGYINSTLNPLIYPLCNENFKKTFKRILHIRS
# T27 sequence (P08588 whole entry): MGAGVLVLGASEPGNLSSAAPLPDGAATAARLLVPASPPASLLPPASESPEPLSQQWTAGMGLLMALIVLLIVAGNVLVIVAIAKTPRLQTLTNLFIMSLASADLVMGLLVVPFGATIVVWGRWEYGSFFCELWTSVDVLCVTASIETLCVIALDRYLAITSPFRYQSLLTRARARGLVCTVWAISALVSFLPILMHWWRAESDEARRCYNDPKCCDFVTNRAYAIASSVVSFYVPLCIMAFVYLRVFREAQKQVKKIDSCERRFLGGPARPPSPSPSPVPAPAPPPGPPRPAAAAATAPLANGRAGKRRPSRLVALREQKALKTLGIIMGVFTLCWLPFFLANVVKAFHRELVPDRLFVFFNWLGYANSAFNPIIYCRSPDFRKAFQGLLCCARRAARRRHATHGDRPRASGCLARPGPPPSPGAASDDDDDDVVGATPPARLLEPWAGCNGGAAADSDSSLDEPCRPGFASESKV
# T32 sequence (P08913 whole entry): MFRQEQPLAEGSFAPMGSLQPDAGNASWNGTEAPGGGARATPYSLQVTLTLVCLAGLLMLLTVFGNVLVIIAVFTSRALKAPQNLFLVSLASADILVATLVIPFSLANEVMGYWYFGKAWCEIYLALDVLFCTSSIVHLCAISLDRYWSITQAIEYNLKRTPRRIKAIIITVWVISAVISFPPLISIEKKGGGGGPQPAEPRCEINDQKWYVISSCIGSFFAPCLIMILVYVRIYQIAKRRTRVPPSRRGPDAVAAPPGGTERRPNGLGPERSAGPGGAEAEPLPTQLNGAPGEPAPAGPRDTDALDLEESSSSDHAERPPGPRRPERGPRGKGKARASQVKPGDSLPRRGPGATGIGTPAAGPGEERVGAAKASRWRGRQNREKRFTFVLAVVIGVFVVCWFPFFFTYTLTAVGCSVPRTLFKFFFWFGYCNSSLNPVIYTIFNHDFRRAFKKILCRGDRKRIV
# T22 sequence (P35462 whole entry): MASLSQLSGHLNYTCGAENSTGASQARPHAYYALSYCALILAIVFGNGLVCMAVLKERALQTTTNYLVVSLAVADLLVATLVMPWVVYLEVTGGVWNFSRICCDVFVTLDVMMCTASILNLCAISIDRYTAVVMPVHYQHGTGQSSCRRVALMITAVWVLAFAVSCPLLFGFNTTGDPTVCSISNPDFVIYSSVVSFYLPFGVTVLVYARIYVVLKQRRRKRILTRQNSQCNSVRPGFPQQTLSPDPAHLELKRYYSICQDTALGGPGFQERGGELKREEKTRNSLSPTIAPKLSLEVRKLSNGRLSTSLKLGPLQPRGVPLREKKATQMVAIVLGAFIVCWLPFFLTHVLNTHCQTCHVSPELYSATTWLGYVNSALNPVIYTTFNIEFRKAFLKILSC
# T14 sequence (Q9H3N8 whole entry): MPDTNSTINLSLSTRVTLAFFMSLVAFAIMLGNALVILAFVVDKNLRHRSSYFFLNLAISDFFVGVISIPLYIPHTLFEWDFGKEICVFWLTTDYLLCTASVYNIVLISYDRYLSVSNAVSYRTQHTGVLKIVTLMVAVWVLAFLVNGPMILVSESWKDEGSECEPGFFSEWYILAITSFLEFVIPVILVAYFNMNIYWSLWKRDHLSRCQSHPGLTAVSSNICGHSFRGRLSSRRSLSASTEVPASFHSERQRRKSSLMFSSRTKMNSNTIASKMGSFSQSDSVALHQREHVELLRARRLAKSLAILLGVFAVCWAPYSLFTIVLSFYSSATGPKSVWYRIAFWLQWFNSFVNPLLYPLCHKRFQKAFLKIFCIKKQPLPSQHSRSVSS
# T7 sequence (P18825 whole entry): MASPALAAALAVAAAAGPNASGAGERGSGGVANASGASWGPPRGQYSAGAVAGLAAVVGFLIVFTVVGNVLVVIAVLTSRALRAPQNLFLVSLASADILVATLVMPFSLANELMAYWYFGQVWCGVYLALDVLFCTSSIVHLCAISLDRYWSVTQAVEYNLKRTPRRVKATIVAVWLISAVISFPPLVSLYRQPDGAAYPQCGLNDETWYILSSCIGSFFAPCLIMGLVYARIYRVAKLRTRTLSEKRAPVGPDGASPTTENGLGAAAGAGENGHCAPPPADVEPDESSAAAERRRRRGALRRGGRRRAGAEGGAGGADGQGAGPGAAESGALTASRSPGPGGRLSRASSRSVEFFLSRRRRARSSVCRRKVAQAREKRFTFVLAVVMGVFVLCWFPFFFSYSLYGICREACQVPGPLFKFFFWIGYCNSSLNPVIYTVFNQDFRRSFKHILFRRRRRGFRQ
# T15 sequence (P28221 whole entry): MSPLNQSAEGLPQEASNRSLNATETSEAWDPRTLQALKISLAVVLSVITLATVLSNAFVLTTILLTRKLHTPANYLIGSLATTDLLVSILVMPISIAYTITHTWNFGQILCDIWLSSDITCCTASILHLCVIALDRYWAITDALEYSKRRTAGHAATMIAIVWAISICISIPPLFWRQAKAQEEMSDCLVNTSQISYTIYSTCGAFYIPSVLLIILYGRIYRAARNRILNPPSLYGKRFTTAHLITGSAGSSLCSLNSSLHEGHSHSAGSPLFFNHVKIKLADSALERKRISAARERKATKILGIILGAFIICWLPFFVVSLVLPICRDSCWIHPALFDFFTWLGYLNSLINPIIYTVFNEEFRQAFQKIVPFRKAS
# T25 sequence (P21917 whole entry): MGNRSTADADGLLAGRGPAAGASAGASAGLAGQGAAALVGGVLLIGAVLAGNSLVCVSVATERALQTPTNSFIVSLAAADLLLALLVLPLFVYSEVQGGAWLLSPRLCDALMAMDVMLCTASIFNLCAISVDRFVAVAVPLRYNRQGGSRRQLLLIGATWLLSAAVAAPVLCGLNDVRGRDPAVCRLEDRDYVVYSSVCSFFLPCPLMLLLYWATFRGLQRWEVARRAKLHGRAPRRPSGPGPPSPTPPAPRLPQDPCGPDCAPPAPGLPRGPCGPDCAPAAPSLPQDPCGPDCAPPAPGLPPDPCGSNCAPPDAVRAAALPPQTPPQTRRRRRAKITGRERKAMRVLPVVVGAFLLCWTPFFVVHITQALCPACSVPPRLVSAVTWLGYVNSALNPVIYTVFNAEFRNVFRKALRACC
# T4 sequence (P41145 whole entry): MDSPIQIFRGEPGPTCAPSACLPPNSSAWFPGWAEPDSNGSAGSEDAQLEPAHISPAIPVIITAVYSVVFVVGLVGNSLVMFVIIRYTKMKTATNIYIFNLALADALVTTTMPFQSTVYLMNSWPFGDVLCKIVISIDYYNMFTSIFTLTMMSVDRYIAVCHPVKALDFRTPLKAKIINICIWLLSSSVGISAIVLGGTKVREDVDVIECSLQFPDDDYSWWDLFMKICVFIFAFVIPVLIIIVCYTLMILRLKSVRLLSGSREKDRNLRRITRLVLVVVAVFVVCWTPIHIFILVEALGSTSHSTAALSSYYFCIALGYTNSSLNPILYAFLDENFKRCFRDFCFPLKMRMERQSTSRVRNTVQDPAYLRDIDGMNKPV
# T29 sequence (P25100 whole entry): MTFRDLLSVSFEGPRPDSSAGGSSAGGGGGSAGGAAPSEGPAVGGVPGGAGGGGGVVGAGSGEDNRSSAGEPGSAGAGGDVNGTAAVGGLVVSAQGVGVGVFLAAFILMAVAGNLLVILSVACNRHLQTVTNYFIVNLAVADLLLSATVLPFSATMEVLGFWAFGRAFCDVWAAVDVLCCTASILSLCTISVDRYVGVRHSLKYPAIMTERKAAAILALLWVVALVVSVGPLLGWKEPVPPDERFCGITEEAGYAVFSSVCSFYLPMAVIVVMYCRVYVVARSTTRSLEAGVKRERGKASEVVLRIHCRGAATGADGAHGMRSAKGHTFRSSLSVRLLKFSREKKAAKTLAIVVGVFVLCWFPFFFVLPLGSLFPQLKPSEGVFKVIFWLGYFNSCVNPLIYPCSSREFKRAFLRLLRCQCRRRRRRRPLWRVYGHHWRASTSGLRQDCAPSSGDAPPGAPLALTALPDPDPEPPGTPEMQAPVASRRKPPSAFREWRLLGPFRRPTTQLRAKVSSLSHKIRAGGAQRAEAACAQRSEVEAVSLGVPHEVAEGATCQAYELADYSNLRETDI
# T16 sequence (P28222 whole entry): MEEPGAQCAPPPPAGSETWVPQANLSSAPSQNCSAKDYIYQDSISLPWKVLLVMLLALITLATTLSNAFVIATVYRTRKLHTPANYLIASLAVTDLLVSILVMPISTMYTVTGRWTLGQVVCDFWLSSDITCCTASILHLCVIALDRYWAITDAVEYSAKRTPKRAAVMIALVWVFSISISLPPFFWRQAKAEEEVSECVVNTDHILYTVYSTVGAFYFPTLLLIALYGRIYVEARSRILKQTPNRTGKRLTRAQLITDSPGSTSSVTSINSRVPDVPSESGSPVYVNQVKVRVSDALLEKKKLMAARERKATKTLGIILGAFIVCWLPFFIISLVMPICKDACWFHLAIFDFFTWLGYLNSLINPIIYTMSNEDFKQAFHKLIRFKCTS
smiles,measurement,setting,value
Clc1ccc(CNCc2ccc(Cn3cncn3)cc2)c(Cl)c1 [compound 22],inhibition at 10 µM,[1],20.2%
same,inhibition at 10 µM,[2],12.8%
same,inhibition at 10 µM,[3],57.3%
same,inhibition at 10 µM,[4],-10.2%
same,inhibition at 10 µM,[5],9.3%
same,inhibition at 10 µM,[6],93.2%
same,inhibition at 10 µM,[7],-4.3%
same,inhibition at 10 µM,[8],-0.6%
same,inhibition at 10 µM,[9],15.3%
same,inhibition at 10 µM,[10],36.7%
same,inhibition at 10 µM,[11],16.1%
same,inhibition at 10 µM,[12],45.2%
same,inhibition at 10 µM,[13],6.7%
same,inhibition at 10 µM,[14],-9.8%
same,inhibition at 10 µM,[15],9.7%
same,inhibition at 10 µM,[16],-13.5%
same,inhibition at 10 µM,[17],-3.7%
same,inhibition at 10 µM,[18],6.3%
same,inhibition at 10 µM,[19],93.4%
same,inhibition at 10 µM,[20],17.8%
same,inhibition at 10 µM,[21],18.5%
same,inhibition at 10 µM,[22],9.4%
same,inhibition at 10 µM,[23],-9.1%
same,inhibition at 10 µM,[24],-6.8%
same,inhibition at 10 µM,[25],17.6%
same,inhibition at 10 µM,[26],15.9%
same,inhibition at 10 µM,[27],-3.5%
same,inhibition at 10 µM,[28],6%
same,inhibition at 10 µM,[29],11.6%
same,inhibition at 10 µM,[30],-1.7%
same,inhibition at 10 µM,[31],6.2%
same,inhibition at 10 µM,[32],32.4%
same,inhibition at 10 µM,[33],4.6%
same,inhibition at 10 µM,[34],-13.9%
same,inhibition at 10 µM,[35],60.5%
same,inhibition at 10 µM,[36],1.4%
same,% Inhibition,[37],78.4%
same,% Inhibition,[38],-1.7%
same,% Inhibition,[39],13.4%
same,% Inhibition,[40],1.1%
same,% Inhibition,[41],5.2%
same,% Inhibition,[42],23.1%
